Experimental findings from Sander's compilation of Henry's law constants (doi:10.1002/jps.2600670510) are described below.

The series can be described thus: Henry solubility constant Hcp at 298.15 K (mol/(m3 Pa)). To be noted: reference: Rytting et al. (1978).

As to `CCCCN` [1-butanamine], the “Henry solubility constant Hcp” value turned out to be 0.52.

Consider `CCCCCCCN` [1-heptanamine], for which the “Henry solubility constant Hcp” value stood at 0.24.

Take `CCCCCCN` [1-hexanamine]: the “Henry solubility constant Hcp” value was 0.32.

`CCCCCCCCN` [1-octanamine]: the “Henry solubility constant Hcp” value turned out to be 0.19.

For `CCCCCN` [1-pentanamine], the “Henry solubility constant Hcp” value was found to be 0.4.

Consider `CCCCCO` [1-pentanol], for which the “Henry solubility constant Hcp” value turned out to be 0.9.

As to `CCC(C)O` (configuration not stated) [2-butanol], the “Henry solubility constant Hcp” value stood at 0.98.

For `CC(C)CO` [2-methyl-1-propanol], the “Henry solubility constant Hcp” value was determined as 0.8.

Consider `CCCCCCC` [heptane], for which the “Henry solubility constant Hcp” value worked out at 4.8e-06.

Turning to `CCCCCC` [hexane], the “Henry solubility constant Hcp” value turned out to be 5.4e-06.

Turning to `CCCCCCCC` [octane], the “Henry solubility constant Hcp” value turned out to be 3.1e-06.

As to `CCCCC` [pentane], the “Henry solubility constant Hcp” value turned out to be 7.8e-06.
